According to patent EP1171107B1, “USE OF A PHARMACEUTICAL COMPOSITION IN THE MANUFACTURE OF A MEDICAMENT FOR THE TREATMENT OF PATHOLOGICAL CONDITIONS OF THE EYE CAUSED BY BACTERIA, VIRUSES, FUNGI, YEASTS AND PROTOZOA” (Dr. GERHARD MANN chem.-pharm. Fabrik GmbH, priority 1999, dated 2000):

Experiments:
Type in all cases: cell-based
S.epidermidis [1] = experiment: Qualitative examination: enrichment of the inoculated test preparation in broth
Summary of the method: (§1)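 Test preparations (5 ml) were inoculated with ca. 10^5 CFU/ml and sampled after 2, 6, 8, 24, 32, 48 and 72 h. Cells were pelleted, washed and resuspended in NaCl-peptone buffer; 2 ml went into 20 ml Caso broth (Fildes medium for H. influenzae), incubated up to 4 days at 33±2°C.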

E.coli [2] = experiment: as above
Summary of the method: as §1

S.aureus [3] = experiment: as above
Summary of the method: as §1

Sc. pneumoniae [4] = experiment: as above
Summary of the method: as §1

E.coli [5] = experiment: Quantitative germ count (re-isolation, surface method) after inoculating the test preparation; conditions: Ausgangskeimzahl 2,7 x 10^5 KBE/ml
S.aureus [6] = experiment: as above; conditions: Ausgangskeimzahl 2,6 x 10^5 KBE/ml
Summary of the method: (§2)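 Test preparations were contaminated with ca. 10^5 CFU/ml of each strain, then sampled at 2, 6, 8, 24, 32, 48 and 72 h. Cells were centrifuged 10 min at 3000 rpm, washed in NaCl-peptone buffer, resuspended and spiral-plated on Caso agar at 33±2°C for max. 4 days. Detection limit was 100 CFU/ml.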

Sc. pneumoniae [7] = experiment: as above; conditions: Ausgangskeimzahl 3,7 x 10^5 KBE/ml
Summary of the method: as §2

H.influenzae [8] = experiment: as above; conditions: Ausgangskeimzahl 2,8 x 10^5 KBE/ml
Summary of the method: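 Surviving germs were counted by the surface method: an aliquot was spiral-plated on Kochblut-Agar and incubated at 33±2°C for max. 4 Tage, giving re-isolated counts in KBE/ml with a detection limit of 100 KBE/ml. Initial germ counts were also set by spiral-plater surface plating. The H. influenzae strain was pretested biochemically for identity and purity.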

P.aeruginosa = experiment: Qualitative examination: enrichment of the inoculated test preparation in broth
Summary of the method: as §1

H.influenzae [9] = experiment: as above
Summary of the method: as §1

S.epidermidis [10] = experiment: Quantitative germ count (re-isolation, surface method) after inoculating the test preparation; conditions: Ausgangskeimzahl 2,1 x 10^5 KBE/ml
Summary of the method: as §2

## Benzalkoniumchlorid [Benzalkoniumchlorid 0,0025 Gew.-%]
S.epidermidis [1]; 2 h after inoculation
  Ergebnis der Reisolierung qualitiativ (+/-) nach Anreicherung: - -
S.epidermidis [1]; 4 h after inoculation
  Ergebnis der Reisolierung qualitiativ (+/-) nach Anreicherung: -
S.epidermidis [1]; 6 h after inoculation
  Ergebnis der Reisolierung qualitiativ (+/-) nach Anreicherung: -
S.epidermidis [1]; 8 h after inoculation
  Ergebnis der Reisolierung qualitiativ (+/-) nach Anreicherung: -
S.epidermidis [1]; 24 h after inoculation
  Ergebnis der Reisolierung qualitiativ (+/-) nach Anreicherung: -
S.epidermidis [1]; 32 h after inoculation
  Ergebnis der Reisolierung qualitiativ (+/-) nach Anreicherung: -
S.epidermidis [1]; 48 h after inoculation
  Ergebnis der Reisolierung qualitiativ (+/-) nach Anreicherung: -
S.epidermidis [1]; 72 h after inoculation
  Ergebnis der Reisolierung qualitiativ (+/-) nach Anreicherung: -
E.coli [2]; 2 h after inoculation
  Ergebnis der Reisolierung qualitiativ (+/-) nach Anreicherung: -
E.coli [2]; 4 h after inoculation
  Ergebnis der Reisolierung qualitiativ (+/-) nach Anreicherung: -
E.coli [2]; 6 h after inoculation
  Ergebnis der Reisolierung qualitiativ (+/-) nach Anreicherung: -
E.coli [2]; 8 h after inoculation
  Ergebnis der Reisolierung qualitiativ (+/-) nach Anreicherung: -
E.coli [2]; 24 h after inoculation
  Ergebnis der Reisolierung qualitiativ (+/-) nach Anreicherung: -
E.coli [2]; 32 h after inoculation
  Ergebnis der Reisolierung qualitiativ (+/-) nach Anreicherung: -
E.coli [2]; 48 h after inoculation
  Ergebnis der Reisolierung qualitiativ (+/-) nach Anreicherung: -
E.coli [2]; 72 h after inoculation
  Ergebnis der Reisolierung qualitiativ (+/-) nach Anreicherung: -
S.aureus [3]; 2 h after inoculation
  Ergebnis der Reisolierung qualitiativ (+/-) nach Anreicherung: -
S.aureus [3]; 4 h after inoculation
  Ergebnis der Reisolierung qualitiativ (+/-) nach Anreicherung: -
S.aureus [3]; 6 h after inoculation
  Ergebnis der Reisolierung qualitiativ (+/-) nach Anreicherung: -
S.aureus [3]; 8 h after inoculation
  Ergebnis der Reisolierung qualitiativ (+/-) nach Anreicherung: -
S.aureus [3]; 24 h after inoculation
  Ergebnis der Reisolierung qualitiativ (+/-) nach Anreicherung: -
S.aureus [3]; 32 h after inoculation
  Ergebnis der Reisolierung qualitiativ (+/-) nach Anreicherung: -
S.aureus [3]; 48 h after inoculation
  Ergebnis der Reisolierung qualitiativ (+/-) nach Anreicherung: -
S.aureus [3]; 72 h after inoculation
  Ergebnis der Reisolierung qualitiativ (+/-) nach Anreicherung: -
Sc. pneumoniae [4]; 2 h after inoculation
  Ergebnis der Reisolierung qualitiativ (+/-) nach Anreicherung: -
Sc. pneumoniae [4]; 4 h after inoculation
  Ergebnis der Reisolierung qualitiativ (+/-) nach Anreicherung: -
Sc. pneumoniae [4]; 6 h after inoculation
  Ergebnis der Reisolierung qualitiativ (+/-) nach Anreicherung: -
Sc. pneumoniae [4]; 8 h after inoculation
  Ergebnis der Reisolierung qualitiativ (+/-) nach Anreicherung: -
Sc. pneumoniae [4]; 24 h after inoculation
  Ergebnis der Reisolierung qualitiativ (+/-) nach Anreicherung: -
Sc. pneumoniae [4]; 32 h after inoculation
  Ergebnis der Reisolierung qualitiativ (+/-) nach Anreicherung: -
Sc. pneumoniae [4]; 48 h after inoculation
  Ergebnis der Reisolierung qualitiativ (+/-) nach Anreicherung: -
Sc. pneumoniae [4]; 72 h after inoculation
  Ergebnis der Reisolierung qualitiativ (+/-) nach Anreicherung: -
E.coli [5]; 2 h after inoculation
  Ergebnis der Reisolierung (in KBE/ml): <100 KBE/ml
E.coli [5]; 4 h after inoculation
  Ergebnis der Reisolierung (in KBE/ml): <100 KBE/ml
E.coli [5]; 6 h after inoculation
  Ergebnis der Reisolierung (in KBE/ml): <100 KBE/ml
E.coli [5]; 8 h after inoculation
  Ergebnis der Reisolierung (in KBE/ml): <100 KBE/ml
E.coli [5]; 24 h after inoculation
  Ergebnis der Reisolierung (in KBE/ml): <100 KBE/ml
E.coli [5]; 32 h after inoculation
  Ergebnis der Reisolierung (in KBE/ml): <100 KBE/ml
E.coli [5]; 48 h after inoculation
  Ergebnis der Reisolierung (in KBE/ml): <100 KBE/ml
E.coli [5]; 72 h after inoculation
  Ergebnis der Reisolierung (in KBE/ml): <100 KBE/ml
S.aureus [6]; 2 h after inoculation
  Ergebnis der Reisolierung (in KBE/ml): <100 KBE/ml
S.aureus [6]; 4 h after inoculation
  Ergebnis der Reisolierung (in KBE/ml): <100 KBE/ml
S.aureus [6]; 6 h after inoculation
  Ergebnis der Reisolierung (in KBE/ml): <100 KBE/ml
S.aureus [6]; 8 h after inoculation
  Ergebnis der Reisolierung (in KBE/ml): <100 KBE/ml
S.aureus [6]; 24 h after inoculation
  Ergebnis der Reisolierung (in KBE/ml): <100 KBE/ml
S.aureus [6]; 32 h after inoculation
  Ergebnis der Reisolierung (in KBE/ml): <100 KBE/ml
S.aureus [6]; 48 h after inoculation
  Ergebnis der Reisolierung (in KBE/ml): <100 KBE/ml
S.aureus [6]; 72 h after inoculation
  Ergebnis der Reisolierung (in KBE/ml): <100 KBE/ml
Sc. pneumoniae [7]; 2 h after inoculation
  Ergebnis der Reisolierung (in KBE/ml): <100 KBE/ml
Sc. pneumoniae [7]; 4 h after inoculation
  Ergebnis der Reisolierung (in KBE/ml): <100 KBE/ml
Sc. pneumoniae [7]; 6 h after inoculation
  Ergebnis der Reisolierung (in KBE/ml): <100 KBE/ml
Sc. pneumoniae [7]; 8 h after inoculation
  Ergebnis der Reisolierung (in KBE/ml): <100 KBE/ml
Sc. pneumoniae [7]; 24 h after inoculation
  Ergebnis der Reisolierung (in KBE/ml): <100 KBE/ml
Sc. pneumoniae [7]; 32 h after inoculation
  Ergebnis der Reisolierung (in KBE/ml): <100 KBE/ml
Sc. pneumoniae [7]; 48 h after inoculation
  Ergebnis der Reisolierung (in KBE/ml): <100 KBE/ml
Sc. pneumoniae [7]; 72 h after inoculation
  Ergebnis der Reisolierung (in KBE/ml): <100 KBE/ml
H.influenzae [8]; 2 h after inoculation
  Ergebnis der Reisolierung (in KBE/ml): <100 KBE/ml
H.influenzae [8]; 4 h after inoculation
  Ergebnis der Reisolierung (in KBE/ml): <100 KBE/ml
H.influenzae [8]; 6 h after inoculation
  Ergebnis der Reisolierung (in KBE/ml): <100 KBE/ml
H.influenzae [8]; 8 h after inoculation
  Ergebnis der Reisolierung (in KBE/ml): <100 KBE/ml
H.influenzae [8]; 24 h after inoculation
  Ergebnis der Reisolierung (in KBE/ml): <100 KBE/ml
H.influenzae [8]; 32 h after inoculation
  Ergebnis der Reisolierung (in KBE/ml): <100 KBE/ml
H.influenzae [8]; 48 h after inoculation
  Ergebnis der Reisolierung (in KBE/ml): <100 KBE/ml
H.influenzae [8]; 72 h after inoculation
  Ergebnis der Reisolierung (in KBE/ml): <100 KBE/ml
P.aeruginosa; 2 h after inoculation
  Ergebnis der Reisolierung qualitiativ (+/-) nach Anreicherung: - -
P.aeruginosa; 4 h after inoculation
  Ergebnis der Reisolierung qualitiativ (+/-) nach Anreicherung: -
P.aeruginosa; 6 h after inoculation
  Ergebnis der Reisolierung qualitiativ (+/-) nach Anreicherung: -
P.aeruginosa; 8 h after inoculation
  Ergebnis der Reisolierung qualitiativ (+/-) nach Anreicherung: -
P.aeruginosa; 24 h after inoculation
  Ergebnis der Reisolierung qualitiativ (+/-) nach Anreicherung: -
P.aeruginosa; 32 h after inoculation
  Ergebnis der Reisolierung qualitiativ (+/-) nach Anreicherung: -
P.aeruginosa; 48 h after inoculation
  Ergebnis der Reisolierung qualitiativ (+/-) nach Anreicherung: -
P.aeruginosa; 72 h after inoculation
  Ergebnis der Reisolierung qualitiativ (+/-) nach Anreicherung: -
H.influenzae [9]; 2 h after inoculation
  Ergebnis der Reisolierung qualitiativ (+/-) nach Anreicherung: -
H.influenzae [9]; 4 h after inoculation
  Ergebnis der Reisolierung qualitiativ (+/-) nach Anreicherung: -
H.influenzae [9]; 6 h after inoculation
  Ergebnis der Reisolierung qualitiativ (+/-) nach Anreicherung: -
H.influenzae [9]; 8 h after inoculation
  Ergebnis der Reisolierung qualitiativ (+/-) nach Anreicherung: -
H.influenzae [9]; 24 h after inoculation
  Ergebnis der Reisolierung qualitiativ (+/-) nach Anreicherung: -
H.influenzae [9]; 32 h after inoculation
  Ergebnis der Reisolierung qualitiativ (+/-) nach Anreicherung: -
H.influenzae [9]; 48 h after inoculation
  Ergebnis der Reisolierung qualitiativ (+/-) nach Anreicherung: -
H.influenzae [9]; 72 h after inoculation
  Ergebnis der Reisolierung qualitiativ (+/-) nach Anreicherung: -
S.epidermidis [10]; 2 h after inoculation
  Ergebnis der Reisolierung (in KBE/ml): <100 KBE/ml
S.epidermidis [10]; 4 h after inoculation
  Ergebnis der Reisolierung (in KBE/ml): <100 KBE/ml
S.epidermidis [10]; 6 h after inoculation
  Ergebnis der Reisolierung (in KBE/ml): <100 KBE/ml
S.epidermidis [10]; 8 h after inoculation
  Ergebnis der Reisolierung (in KBE/ml): <100 KBE/ml
S.epidermidis [10]; 24 h after inoculation
  Ergebnis der Reisolierung (in KBE/ml): <100 KBE/ml
S.epidermidis [10]; 32 h after inoculation
  Ergebnis der Reisolierung (in KBE/ml): <100 KBE/ml
S.epidermidis [10]; 48 h after inoculation
  Ergebnis der Reisolierung (in KBE/ml): <100 KBE/ml
S.epidermidis [10]; 72 h after inoculation
  Ergebnis der Reisolierung (in KBE/ml): <100 KBE/ml
